Columns and labels:
[1] = tested on: metastatic ovarian cancer; assay: Prior standard chemotherapy of the ovarian cancer patient before the ANG1005 trial; type: in vivo, human; settings: prior therapy 2007-2008
Description: The patient was originally diagnosed in November 2006 with ovarian cancer. […] From February 2008 to March 2008, the patient received a combination of Gemzar® (gemcitabine) and […]® (topotecan). The patient was again given a combination of Taxotere® (docetaxel) and carboplatin from March 2008 until July 2008. In November 2008, the patient was administered Doxil® (doxorubicin).

LRP receptor = target: T1, LRP receptor (Rattus norvegicus, UniProt G3V928); assay: In situ rat brain perfusion, uptake inhibition by LRP ligands or Angiopep peptides; type: in vivo; settings: for brain uptake of an Angiopep conjugate: FIG. 6B
T1 construct: from tissue; host or cells: brain of male Sprague Dawley rats (in situ perfusion)
Description: The methods of the invention may be especially useful in treating cancers having cells that express low density lipoprotein-related protein (LRP) receptor. The LRP receptor is expressed on the surface of cells, and is capable of binding to various substrates including aprotinin, β-amyloid, tissue plasminogen activator (tPA), melano-transferrin, and receptor associated peptide (RAP). The peptides described herein were designed based on the consensus kunitz-domain sequences that act as LRP receptor ligands (see, e.g., PCT Publication No. WO 2004/060403). Uptake of the conjugates including Angiopep-1 or Angiopep-2 is inhibited by LRP ligands, thus indicating involvement of LRP in this process. […] Angiopep-2 (10 or 100 μM) is similarly able to reduce uptake of the conjugates into cells (FIGS. 6A and 6B).
The results described in FIGS. 4A and 4B were obtained using an in situ rat brain perfusion. Male Sprague Dawley rats were anesthetized with […] i.p., of sodium pentobarbital (Nembutal, Abbott Laboratories, North Chicago, Ill., USA). The neck region was shaved and the common carotid artery was exposed. The external carotid artery was ligated, but the pterygopalatine artery was not occluded. A PE-60 catheter filled with heparinized 0.9% saline (100 IU/mL) was inserted into the common carotid artery upon ligation. A heating pad linked to YSI feedback controller device (Yellow Springs Instruments, Yellow Springs, Ohio, USA) was used to maintain the rat body temperature at 37° C. The PE-60 catheter was attached to a glass syringe filled with the tracer; with or without inhibitors, in a bicarbonate-buffered physiological saline (Smith Q R., Pharm Biotechnol 8:285-307, 1996) mounted on a Harvard infusion pump (Harvard Biosciences, South Natick, Mass., USA) maintained at 37° C. Dual-labeled experiments were performed for studying the brain uptake. [^14C]Sucrose was used as a vascular volume marker. Perfusion was started upon severing the heart to stop blood flow to the brain. […] The samples were weighed and counted using the gamma counter (Cobra 600) to determine the ^125I labeled drug. […]

T1 sequence (G3V928 20-4545): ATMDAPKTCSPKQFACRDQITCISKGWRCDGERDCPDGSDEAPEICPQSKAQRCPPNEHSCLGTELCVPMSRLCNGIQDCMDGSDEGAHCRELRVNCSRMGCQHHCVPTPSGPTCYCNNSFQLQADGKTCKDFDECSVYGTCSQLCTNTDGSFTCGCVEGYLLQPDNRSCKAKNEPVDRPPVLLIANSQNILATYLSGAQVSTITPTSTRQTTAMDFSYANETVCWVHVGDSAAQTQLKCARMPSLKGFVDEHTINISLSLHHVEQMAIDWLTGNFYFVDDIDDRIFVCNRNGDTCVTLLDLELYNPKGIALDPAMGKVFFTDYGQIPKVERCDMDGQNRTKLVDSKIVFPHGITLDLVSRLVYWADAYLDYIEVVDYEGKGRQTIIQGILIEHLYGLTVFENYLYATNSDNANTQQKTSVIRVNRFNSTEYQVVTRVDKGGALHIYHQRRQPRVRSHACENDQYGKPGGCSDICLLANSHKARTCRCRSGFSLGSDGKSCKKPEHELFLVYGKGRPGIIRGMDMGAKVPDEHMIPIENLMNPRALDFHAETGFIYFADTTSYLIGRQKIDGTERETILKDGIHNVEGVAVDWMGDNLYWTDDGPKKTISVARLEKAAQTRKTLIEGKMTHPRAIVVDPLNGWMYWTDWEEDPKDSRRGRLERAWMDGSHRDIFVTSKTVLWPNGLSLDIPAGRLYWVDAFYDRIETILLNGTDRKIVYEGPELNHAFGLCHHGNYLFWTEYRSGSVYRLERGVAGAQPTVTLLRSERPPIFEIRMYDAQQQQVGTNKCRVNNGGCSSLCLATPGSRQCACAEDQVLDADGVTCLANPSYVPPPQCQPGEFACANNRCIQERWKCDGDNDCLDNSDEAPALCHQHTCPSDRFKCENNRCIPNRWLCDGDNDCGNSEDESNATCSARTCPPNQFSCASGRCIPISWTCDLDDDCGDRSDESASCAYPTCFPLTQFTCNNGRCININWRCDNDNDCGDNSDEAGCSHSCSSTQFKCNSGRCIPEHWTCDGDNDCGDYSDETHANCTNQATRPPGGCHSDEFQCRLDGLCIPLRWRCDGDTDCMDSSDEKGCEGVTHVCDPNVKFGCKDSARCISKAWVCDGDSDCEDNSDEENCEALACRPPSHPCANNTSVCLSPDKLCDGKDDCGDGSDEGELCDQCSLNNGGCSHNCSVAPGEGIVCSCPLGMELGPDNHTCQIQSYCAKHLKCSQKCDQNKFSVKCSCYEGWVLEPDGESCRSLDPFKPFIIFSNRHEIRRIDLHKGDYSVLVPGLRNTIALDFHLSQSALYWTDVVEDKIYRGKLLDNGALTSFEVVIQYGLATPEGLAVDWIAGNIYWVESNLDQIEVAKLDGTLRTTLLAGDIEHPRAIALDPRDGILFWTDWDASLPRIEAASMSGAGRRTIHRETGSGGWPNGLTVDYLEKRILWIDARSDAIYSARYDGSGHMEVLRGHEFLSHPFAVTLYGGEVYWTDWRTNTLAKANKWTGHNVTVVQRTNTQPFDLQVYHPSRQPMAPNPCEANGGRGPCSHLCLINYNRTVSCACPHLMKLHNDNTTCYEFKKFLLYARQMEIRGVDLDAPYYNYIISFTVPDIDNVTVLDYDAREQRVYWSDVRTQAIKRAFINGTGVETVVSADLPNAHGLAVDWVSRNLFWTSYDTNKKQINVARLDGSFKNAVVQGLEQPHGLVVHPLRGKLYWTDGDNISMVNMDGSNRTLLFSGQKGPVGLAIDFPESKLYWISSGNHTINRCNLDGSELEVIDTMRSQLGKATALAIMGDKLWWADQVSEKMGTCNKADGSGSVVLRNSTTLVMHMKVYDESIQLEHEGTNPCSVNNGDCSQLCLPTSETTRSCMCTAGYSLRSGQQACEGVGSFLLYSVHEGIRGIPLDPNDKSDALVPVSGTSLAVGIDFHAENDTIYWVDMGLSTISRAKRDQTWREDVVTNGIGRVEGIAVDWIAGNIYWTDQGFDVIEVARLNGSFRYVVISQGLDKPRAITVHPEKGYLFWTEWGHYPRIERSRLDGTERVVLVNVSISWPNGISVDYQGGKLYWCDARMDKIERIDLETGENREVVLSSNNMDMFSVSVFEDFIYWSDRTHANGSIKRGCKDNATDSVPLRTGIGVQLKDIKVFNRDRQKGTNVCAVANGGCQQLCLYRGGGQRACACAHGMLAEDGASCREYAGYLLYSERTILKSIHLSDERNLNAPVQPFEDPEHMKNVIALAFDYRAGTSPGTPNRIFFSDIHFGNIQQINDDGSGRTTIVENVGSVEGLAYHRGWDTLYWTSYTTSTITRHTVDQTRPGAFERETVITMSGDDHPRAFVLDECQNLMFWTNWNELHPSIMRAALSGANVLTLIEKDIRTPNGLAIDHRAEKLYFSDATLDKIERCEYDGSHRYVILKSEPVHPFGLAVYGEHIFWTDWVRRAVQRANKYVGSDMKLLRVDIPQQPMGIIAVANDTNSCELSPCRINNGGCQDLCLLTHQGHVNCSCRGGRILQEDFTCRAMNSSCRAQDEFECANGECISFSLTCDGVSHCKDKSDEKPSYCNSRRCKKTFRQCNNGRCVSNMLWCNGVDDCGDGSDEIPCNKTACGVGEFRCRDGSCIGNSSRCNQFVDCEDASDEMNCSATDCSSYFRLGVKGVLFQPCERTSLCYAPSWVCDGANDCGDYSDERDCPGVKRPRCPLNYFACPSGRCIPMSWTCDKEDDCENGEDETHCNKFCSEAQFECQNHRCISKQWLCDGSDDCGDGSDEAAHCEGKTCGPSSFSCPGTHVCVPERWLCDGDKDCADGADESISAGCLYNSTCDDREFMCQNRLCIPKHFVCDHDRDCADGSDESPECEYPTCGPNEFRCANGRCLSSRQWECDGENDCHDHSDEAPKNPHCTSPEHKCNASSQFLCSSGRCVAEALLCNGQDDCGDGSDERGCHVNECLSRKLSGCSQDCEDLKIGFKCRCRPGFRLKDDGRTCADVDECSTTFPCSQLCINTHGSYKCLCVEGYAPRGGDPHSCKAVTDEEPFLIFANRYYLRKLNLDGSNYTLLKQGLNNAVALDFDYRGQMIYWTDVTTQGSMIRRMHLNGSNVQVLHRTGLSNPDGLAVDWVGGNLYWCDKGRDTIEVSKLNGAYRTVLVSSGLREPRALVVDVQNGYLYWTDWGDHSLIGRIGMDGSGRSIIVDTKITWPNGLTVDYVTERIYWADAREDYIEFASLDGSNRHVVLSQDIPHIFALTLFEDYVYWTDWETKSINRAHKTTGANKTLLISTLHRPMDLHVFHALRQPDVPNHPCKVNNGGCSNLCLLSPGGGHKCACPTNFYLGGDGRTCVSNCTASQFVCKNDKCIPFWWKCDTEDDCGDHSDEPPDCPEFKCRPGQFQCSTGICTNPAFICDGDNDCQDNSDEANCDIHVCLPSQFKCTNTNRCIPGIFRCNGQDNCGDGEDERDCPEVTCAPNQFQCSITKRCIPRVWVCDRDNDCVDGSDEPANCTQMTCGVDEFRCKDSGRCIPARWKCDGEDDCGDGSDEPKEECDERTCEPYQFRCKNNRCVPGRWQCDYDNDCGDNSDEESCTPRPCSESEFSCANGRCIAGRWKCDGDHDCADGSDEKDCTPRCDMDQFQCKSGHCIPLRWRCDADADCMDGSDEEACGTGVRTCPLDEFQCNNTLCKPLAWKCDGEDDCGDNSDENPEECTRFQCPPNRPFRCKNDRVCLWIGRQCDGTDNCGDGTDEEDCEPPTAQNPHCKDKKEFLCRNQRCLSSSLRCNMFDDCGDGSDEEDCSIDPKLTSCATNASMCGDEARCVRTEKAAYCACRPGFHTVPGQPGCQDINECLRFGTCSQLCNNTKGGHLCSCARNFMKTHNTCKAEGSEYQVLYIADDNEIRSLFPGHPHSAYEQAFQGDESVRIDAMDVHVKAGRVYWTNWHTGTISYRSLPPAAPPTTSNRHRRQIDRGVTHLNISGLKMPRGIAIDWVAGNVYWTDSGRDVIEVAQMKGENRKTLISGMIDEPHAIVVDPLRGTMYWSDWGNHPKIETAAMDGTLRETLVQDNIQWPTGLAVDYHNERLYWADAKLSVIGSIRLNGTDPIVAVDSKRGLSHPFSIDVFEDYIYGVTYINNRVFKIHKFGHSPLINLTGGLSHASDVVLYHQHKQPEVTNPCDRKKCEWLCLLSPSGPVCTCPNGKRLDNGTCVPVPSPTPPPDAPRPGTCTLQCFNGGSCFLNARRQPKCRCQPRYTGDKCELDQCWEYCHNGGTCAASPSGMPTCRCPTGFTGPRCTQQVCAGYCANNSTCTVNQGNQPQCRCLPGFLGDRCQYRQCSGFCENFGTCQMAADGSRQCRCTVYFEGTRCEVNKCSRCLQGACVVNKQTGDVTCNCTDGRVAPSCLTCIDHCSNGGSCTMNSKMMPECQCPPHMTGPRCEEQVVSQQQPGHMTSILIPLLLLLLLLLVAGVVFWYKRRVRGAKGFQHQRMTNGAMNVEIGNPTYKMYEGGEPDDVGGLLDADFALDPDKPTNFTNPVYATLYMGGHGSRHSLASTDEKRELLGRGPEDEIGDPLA

Compound | course of patient's cancer after receiving the agent [1] | also measured
N.N.O=C([O-])C1(C(=O)[O-])CCC1.[Pt+2] [carboplatin] | continued to progress | 
CC(=O)O[C@@]12CO[C@@H]1C[C@H](O)[C@@]1(C)C(=O)[C@H](O)C3=C(C)[C@@H](OC(=O)[C@H](O)[C@@H](NC(=O)OC(C)(C)C)c4ccccc4)C[C@@](O)([C@@H](OC(=O)c4ccccc4)[C@H]21)C3(C)C [docetaxel] | continued to progress | 
COc1cccc2c1C(=O)c1c(O)c3c(c(O)c1C2=O)C[C@@](O)(C(=O)CO)C[C@@H]3O[C@H]1C[C@H](N)[C@H](O)[C@H](C)O1 [doxorubicin] | continued to progress | 
Nc1ccn([C@@H]2O[C@H](CO)[C@@H](O)C2(F)F)c(=O)n1 [gemcitabine] | continued to progress | 
CC[C@@]1(O)C(=O)OCc2c1cc1n(c2=O)Cc2cc3c(CN(C)C)c(O)ccc3nc2-1 [topotecan] | continued to progress | 
Angiopep-2: peptide vector, sequence TFFYGGSRGKRNNFKTEEY |  | uptake of the conjugates into cells (LRP receptor; Angiopep-2 10 or 100 μM, FIG. 6A): reduce uptake
RAP: LRP ligand, receptor associated protein (RAP) |  | brain uptake of an Angiopep conjugate (LRP receptor; RAP 200 nM co-perfused): reducing brain uptake
aprotinin |  | brain uptake of an Angiopep conjugate (LRP receptor; aprotinin 10 μM co-perfused): reducing brain uptake

Source: patent US9173891B2, “Treatment of ovarian cancer using an anticancer agent conjugated to an angiopep-2 analog” (Angiochem, Inc., priority 2009, dated 2015)
